The values that follow come from ChEMBL document CHEMBL5724914, “Linking interpersonal differences in gut microbiota composition and drug biotransformation activity” (2024).

Data set [1] in a line: The drug is tested on Z-025 corresponding to rabbit gut metagenome with ENA study accession number: PRJEB37062 and ENA sample accession number: ERS12561824 for biotransformation under anaerobic condition. The drug concentrations were measured over 9 timepoints collected between 0 and 24 hours of incubation by liquid-chromatography-coupled mass spectrometry (LC–MS). Conditions: 2 µM.

The nature of data set [2]: The drug is tested on Z-024 corresponding to pig gut metagenome with ENA study accession number: PRJEB37062 and ENA sample accession number: ERS12561823 for biotransformation under anaerobic condition. The drug concentrations were measured over 9 timepoints collected between 0 and 24 hours of incubation by liquid-chromatography-coupled mass spectrometry (LC–MS). Conditions: 2 µM.

Data set [3] in a line: The drug is tested on Z-022 corresponding to mouse gut metagenome with ENA study accession number: PRJEB37062 and ENA sample accession number: ERS12561821 for biotransformation under anaerobic condition. The drug concentrations were measured over 9 timepoints collected between 0 and 24 hours of incubation by liquid-chromatography-coupled mass spectrometry (LC–MS). Conditions: 2 µM.

Data set [4] can be described thus: The drug is tested on Z-021 corresponding to metagenome with ENA study accession number: PRJEB37062 and ENA sample accession number: ERS12561820 for biotransformation under anaerobic condition. The drug concentrations were measured over 9 timepoints collected between 0 and 24 hours of incubation by liquid-chromatography-coupled mass spectrometry (LC–MS). Particulars: 2 µM.

Data set [5] in a line: The drug is tested on Z-003 corresponding to pig gut metagenome with ENA study accession number: PRJEB37062 and ENA sample accession number: ERS12561803 for biotransformation under anaerobic condition. The drug concentrations were measured over 9 timepoints collected between 0 and 24 hours of incubation by liquid-chromatography-coupled mass spectrometry (LC–MS). Particulars: 2 µM.

Data set [6] can be described thus: The drug is tested on WLS-350 corresponding to human gut metagenome with ENA study accession number: PRJEB37062 and ENA sample accession number: ERS12561789 for biotransformation under anaerobic condition. The drug concentrations were measured over 9 timepoints collected between 0 and 24 hours of incubation by liquid-chromatography-coupled mass spectrometry (LC–MS). Particulars: 2 µM.

Data set [7] is described as follows: The drug is tested on WLS-240 corresponding to human gut metagenome with ENA study accession number: PRJEB37062 and ENA sample accession number: ERS12561773 for biotransformation under anaerobic condition. The drug concentrations were measured over 9 timepoints collected between 0 and 24 hours of incubation by liquid-chromatography-coupled mass spectrometry (LC–MS). Particulars: 2 µM.

Data set [8] can be described thus: The drug is tested on WLS-086 corresponding to human gut metagenome with ENA study accession number: PRJEB37062 and ENA sample accession number: ERS12561752 for biotransformation under anaerobic condition. The drug concentrations were measured over 9 timepoints collected between 0 and 24 hours of incubation by liquid-chromatography-coupled mass spectrometry (LC–MS). Particulars: 2 µM.

A short description of data set [9]: The drug is tested on WLS-077 corresponding to human gut metagenome with ENA study accession number: PRJEB37062 and ENA sample accession number: ERS12561750 for biotransformation under anaerobic condition. The drug concentrations were measured over 9 timepoints collected between 0 and 24 hours of incubation by liquid-chromatography-coupled mass spectrometry (LC–MS). Conditions: 2 µM.

The nature of data set [10]: The drug is tested on WLS-069 corresponding to human gut metagenome with ENA study accession number: PRJEB37062 and ENA sample accession number: ERS12561748 for biotransformation under anaerobic condition. The drug concentrations were measured over 9 timepoints collected between 0 and 24 hours of incubation by liquid-chromatography-coupled mass spectrometry (LC–MS). Particulars: 2 µM.

Data set [11] can be described thus: The drug is tested on WLS-039 corresponding to human gut metagenome with ENA study accession number: PRJEB37062 and ENA sample accession number: ERS12561746 for biotransformation under anaerobic condition. The drug concentrations were measured over 9 timepoints collected between 0 and 24 hours of incubation by liquid-chromatography-coupled mass spectrometry (LC–MS). Particulars: 2 µM.

The nature of data set [12]: The drug is tested on WLS-038 corresponding to human gut metagenome with ENA study accession number: PRJEB37062 and ENA sample accession number: ERS12561745 for biotransformation under anaerobic condition. The drug concentrations were measured over 9 timepoints collected between 0 and 24 hours of incubation by liquid-chromatography-coupled mass spectrometry (LC–MS). Conditions: 2 µM.

The conditions of data set [13]: human gut metagenome, 24 h, 2 µM.
The conditions of data set [14]: human gut metagenome, 24 h, 2 µM. The source holds these as a separate data set.
For data set [15] the following is noted: human gut metagenome, 24 h, 2 µM. This is another data set of the same source.
The conditions of data set [16]: human gut metagenome, 24 h, 2 µM. The source holds these as a separate data set.
For data set [17] the following is noted: human gut metagenome, 24 h, 2 µM. The source holds these as a separate data set.
For data set [18] the following is noted: human gut metagenome, 24 h, 2 µM. This is another data set of the same source.
For data set [19] the following is noted: human gut metagenome, 24 h, 2 µM. This is another data set of the same source.
The conditions of data set [20]: human gut metagenome, 24 h, 2 µM. The source holds these as a separate data set.
Note: call rule not given here.

`CCc1nc(N)nc(N)c1-c1ccc(Cl)cc1` [PYRIMETHAMINE]: the “Bacterial Biotransformation” value in data set [1] is listed as “Compound NOT metabolized”; in [2], “Compound metabolized”; in data set [3] it was “Compound metabolized”; in data set [4], “Compound NOT metabolized”; in data set [5], “Compound NOT metabolized”; in data set [6] it was “Compound NOT metabolized”. Besides, the “Bacterial Biotransformation” value was “Compound metabolized” in [7]; “Compound metabolized” in data set [8]; “Compound NOT metabolized” in data set [9]; “Compound NOT metabolized” in [10]; “Compound NOT metabolized” in data set [11]; “Compound NOT metabolized” in data set [12]. Besides, the “Bacterial Biotransformation” value in data set [13] was “Compound NOT metabolized”; in data set [14] it was “Compound NOT metabolized”; in data set [15], “Compound NOT metabolized”; in [16] it was “Compound NOT metabolized”; in data set [17] it was “Compound metabolized”; in [18], “Compound NOT metabolized”. For the same compound, the “Bacterial Biotransformation” value in [19] and in data set [20] was “Compound metabolized” in each case.

On to `COc1ccccc1OCC(O)CN1CCN(CC(=O)Nc2c(C)cccc2C)CC1` (stereo not given) [RANOLAZINE], for which the “Bacterial Biotransformation” value in data set [1] is reported as “Compound NOT metabolized”; in [2], “Compound NOT metabolized”; in [3] it was “Compound metabolized”; in data set [4], “Compound metabolized”; in data set [5] it was “Compound metabolized”; in data set [6] it was “Compound NOT metabolized”. The “Bacterial Biotransformation” value in [7] is reported as “Compound NOT metabolized”; in data set [8], “Compound metabolized”; in [9], “Compound NOT metabolized”; in data set [10], “Compound NOT metabolized”; in data set [11], “Compound NOT metabolized”; in data set [12], “Compound NOT metabolized”. The “Bacterial Biotransformation” value in data set [13], in [14], in [15], in data set [16], in [17] and in data set [18] was “Compound NOT metabolized” throughout. Further, the “Bacterial Biotransformation” value in data set [19] and in data set [20] was “Compound NOT metabolized” throughout.

In the case of `CCCc1nn(C)c2c(=O)[nH]c(-c3cc(S(=O)(=O)N4CCN(C)CC4)ccc3OCC)nc12.O=C(O)CC(O)(CC(=O)O)C(=O)O` [SILDENAFIL CITRATE], the “Bacterial Biotransformation” value is listed as “Compound metabolized” in data set [1]; “Compound metabolized” in data set [2]; “Compound metabolized” in data set [3]; “Compound NOT metabolized” in [4]; “Compound NOT metabolized” in data set [5]; “Compound NOT metabolized” in data set [6]. Further, the “Bacterial Biotransformation” value was “Compound metabolized” in [7]; “Compound metabolized” in data set [8]; “Compound NOT metabolized” in data set [9]; “Compound NOT metabolized” in data set [10]; “Compound NOT metabolized” in [11]; “Compound NOT metabolized” in [12]. For the same compound, the “Bacterial Biotransformation” value in [13] is “Compound NOT metabolized”; in [14], “Compound NOT metabolized”; in data set [15], “Compound metabolized”; in [16], “Compound NOT metabolized”; in data set [17], “Compound NOT metabolized”; in [18], “Compound NOT metabolized”. In addition, the figures for the “Bacterial Biotransformation” value in [19] and in data set [20] were “Compound NOT metabolized” and “Compound metabolized”, respectively.

As for `COc1ccc2[nH]c([S+]([O-])Cc3ncc(C)c(OC)c3C)nc2n1` (stereo not given) [TENATOPRAZOLE], the “Bacterial Biotransformation” value in data set [1] is “Compound metabolized”; in data set [2] it was “Compound NOT metabolized”; in data set [3], “Compound NOT metabolized”; in [4] it was “Compound NOT metabolized”; in data set [5], “Compound metabolized”; in [6], “Compound NOT metabolized”. Moreover, the “Bacterial Biotransformation” value in data set [7] is “Compound metabolized”; in [8] it was “Compound metabolized”; in data set [9], “Compound NOT metabolized”; in data set [10], “Compound metabolized”; in data set [11], “Compound metabolized”; in [12], “Compound metabolized”. Further, the “Bacterial Biotransformation” value is recorded as “Compound NOT metabolized” in [13]; “Compound NOT metabolized” in data set [14]; “Compound metabolized” in [15]; “Compound metabolized” in [16]; “Compound NOT metabolized” in data set [17]; “Compound metabolized” in [18]. The “Bacterial Biotransformation” value in data set [19] and in data set [20] was “Compound NOT metabolized” in each case.

With `CN1C(C(=O)Nc2ccccn2)=C(O)c2sccc2S1(=O)=O` [TENOXICAM], the “Bacterial Biotransformation” value in data set [1] is reported as “Compound metabolized”; in data set [2], “Compound metabolized”; in [3], “Compound metabolized”; in data set [4], “Compound metabolized”; in data set [5], “Compound NOT metabolized”; in [6] it was “Compound metabolized”. The “Bacterial Biotransformation” value in [7], in data set [8], in [9], in data set [10], in [11] and in data set [12] was “Compound NOT metabolized” in each case. Also, the “Bacterial Biotransformation” value in [13], in data set [14], in [15], in [16], in data set [17] and in [18] was “Compound NOT metabolized” each time. Also, the “Bacterial Biotransformation” value in data set [19] and in [20] was “Compound NOT metabolized” throughout.
